# Measured values: ChEMBL document CHEMBL1145739, “N-(3-phenylsulfonyl-3-piperidinoyl)-phenylalanine derivatives as potent, selective VLA-4 antagonists” (Bioorg Med Chem Lett, 2003)
# Legend:
# [1] = target: T1, Integrin alpha-4/beta-7 (Homo sapiens, UniProt P13612+P26010); experiment: Binding affinity towards […] receptor in human RPMI-8866 B-cell line using [125I]MAdCAM-Ig as radioligand
# T1 sequence (P13612 whole entry): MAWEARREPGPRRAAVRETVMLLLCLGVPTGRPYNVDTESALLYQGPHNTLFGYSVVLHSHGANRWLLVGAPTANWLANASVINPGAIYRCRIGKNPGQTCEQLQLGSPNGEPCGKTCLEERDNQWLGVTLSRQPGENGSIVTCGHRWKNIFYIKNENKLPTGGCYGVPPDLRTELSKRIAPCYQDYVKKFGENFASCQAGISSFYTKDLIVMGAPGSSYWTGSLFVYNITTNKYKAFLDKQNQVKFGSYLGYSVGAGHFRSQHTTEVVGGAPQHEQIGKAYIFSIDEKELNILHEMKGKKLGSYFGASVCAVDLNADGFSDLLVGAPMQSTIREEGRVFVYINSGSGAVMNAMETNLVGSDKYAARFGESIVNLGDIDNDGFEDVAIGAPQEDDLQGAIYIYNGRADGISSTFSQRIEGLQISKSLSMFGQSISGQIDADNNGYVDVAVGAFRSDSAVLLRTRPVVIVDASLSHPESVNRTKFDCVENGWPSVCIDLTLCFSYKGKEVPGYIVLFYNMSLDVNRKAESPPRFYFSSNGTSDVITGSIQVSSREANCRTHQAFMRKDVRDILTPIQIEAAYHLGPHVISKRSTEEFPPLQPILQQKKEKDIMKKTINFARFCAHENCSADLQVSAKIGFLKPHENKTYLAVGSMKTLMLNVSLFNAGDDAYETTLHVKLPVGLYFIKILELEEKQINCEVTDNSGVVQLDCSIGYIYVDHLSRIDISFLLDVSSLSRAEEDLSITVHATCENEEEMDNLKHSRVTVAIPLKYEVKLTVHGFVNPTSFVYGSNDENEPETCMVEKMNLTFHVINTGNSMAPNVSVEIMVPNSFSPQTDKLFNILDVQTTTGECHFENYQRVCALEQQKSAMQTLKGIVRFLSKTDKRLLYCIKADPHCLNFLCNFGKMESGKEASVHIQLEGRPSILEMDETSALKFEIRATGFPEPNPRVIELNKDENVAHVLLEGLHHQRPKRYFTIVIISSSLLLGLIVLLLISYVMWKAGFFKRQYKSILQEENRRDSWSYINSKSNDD
# T1 sequence (P26010 whole entry): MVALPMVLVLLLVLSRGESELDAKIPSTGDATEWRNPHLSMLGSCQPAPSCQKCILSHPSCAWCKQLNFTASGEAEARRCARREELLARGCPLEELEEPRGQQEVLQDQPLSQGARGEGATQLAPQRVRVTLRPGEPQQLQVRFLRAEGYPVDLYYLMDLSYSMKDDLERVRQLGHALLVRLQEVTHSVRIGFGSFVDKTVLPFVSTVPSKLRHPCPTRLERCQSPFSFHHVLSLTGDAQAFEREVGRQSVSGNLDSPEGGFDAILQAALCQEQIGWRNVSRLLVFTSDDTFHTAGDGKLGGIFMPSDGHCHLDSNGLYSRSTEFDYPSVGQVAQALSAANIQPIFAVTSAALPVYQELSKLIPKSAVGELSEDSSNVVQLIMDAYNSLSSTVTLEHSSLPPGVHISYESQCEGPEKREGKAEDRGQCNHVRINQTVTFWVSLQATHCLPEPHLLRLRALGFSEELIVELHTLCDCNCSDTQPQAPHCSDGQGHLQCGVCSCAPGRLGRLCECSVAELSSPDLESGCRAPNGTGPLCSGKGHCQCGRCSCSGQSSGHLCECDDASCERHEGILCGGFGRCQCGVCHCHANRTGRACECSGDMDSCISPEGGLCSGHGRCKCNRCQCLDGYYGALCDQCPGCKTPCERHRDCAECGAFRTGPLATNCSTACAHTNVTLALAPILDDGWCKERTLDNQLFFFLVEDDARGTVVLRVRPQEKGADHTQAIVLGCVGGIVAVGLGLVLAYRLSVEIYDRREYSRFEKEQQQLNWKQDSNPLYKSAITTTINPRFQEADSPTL
# [2] = Half life time was evaluated at 1 mg/kg of iv administration in Sprague-Dawley rats; assay type: ADME, organism-based; parameters: dose 1 mg/kg, route intravenous; settings: rat, in vivo
# [3] = Oral bioavailability in rat (Sprague-Dawley) (dose 2 mg/kg); assay type: ADME, organism-based; settings: in vivo
# [4] = target: Integrin alpha-4/beta-1 (Homo sapiens, UniProt P05556+P13612); experiment: Binding affinity towards VLA-4 (alpha4 beta-1) receptor in human Jurkat cells using [125I]VCAM-Ig as radioligand; assay type: cell-based
# [5] = Plasma clearance was evaluated at 1 mg/kg of iv administration in Sprague-Dawley rats; assay type: ADME, organism-based; parameters: dose 1 mg/kg, route intravenous; settings: rat, read-out: Clp
# [6] = target: T1, Integrin alpha-4/beta-7; experiment: Inhibition of [125I]-VCAM-Ig binding to human integrin alpha4-beta7 receptor in RPMI-8866 cells; assay type: cell-based
# [7] = target: T2, Integrin alpha-4/beta-7 (Homo sapiens) (UniProt P13612+P26010); experiment: Percent inhibition of [125I]VCAM-Ig binding to human integrin alpha4-beta7 receptor of RPMI-8866 cells at 100 nM; assay type: cell-based
# [8] = target: T2, Integrin alpha-4/beta-7 (Homo sapiens); experiment: Percent inhibition of [125I]MAdCAM-Ig binding to human integrin alpha4-beta7 receptor of RPMI-8866 cells at 100 nM; assay type: cell-based
# Chain of Integrin alpha-4/beta-1 (P05556 whole entry, one chain of several): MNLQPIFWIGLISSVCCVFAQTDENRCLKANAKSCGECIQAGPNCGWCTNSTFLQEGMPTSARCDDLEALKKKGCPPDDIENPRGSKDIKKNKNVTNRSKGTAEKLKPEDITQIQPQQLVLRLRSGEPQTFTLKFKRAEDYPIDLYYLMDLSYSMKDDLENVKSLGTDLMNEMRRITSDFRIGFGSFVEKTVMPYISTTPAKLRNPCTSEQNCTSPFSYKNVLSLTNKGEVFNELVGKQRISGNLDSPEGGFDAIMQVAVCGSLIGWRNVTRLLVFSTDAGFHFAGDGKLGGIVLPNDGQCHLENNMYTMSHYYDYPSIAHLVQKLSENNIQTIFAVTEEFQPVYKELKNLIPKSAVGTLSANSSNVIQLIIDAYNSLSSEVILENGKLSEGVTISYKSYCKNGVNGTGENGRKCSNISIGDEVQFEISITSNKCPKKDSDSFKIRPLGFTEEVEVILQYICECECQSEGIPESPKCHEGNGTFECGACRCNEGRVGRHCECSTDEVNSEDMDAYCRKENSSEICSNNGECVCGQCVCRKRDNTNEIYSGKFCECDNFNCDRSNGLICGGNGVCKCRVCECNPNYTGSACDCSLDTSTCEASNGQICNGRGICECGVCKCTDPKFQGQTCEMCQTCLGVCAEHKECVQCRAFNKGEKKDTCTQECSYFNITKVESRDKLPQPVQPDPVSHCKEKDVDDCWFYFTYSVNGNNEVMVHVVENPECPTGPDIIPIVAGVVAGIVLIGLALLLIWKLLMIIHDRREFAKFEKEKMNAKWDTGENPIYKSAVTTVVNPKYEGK
Structure (SMILES),IC50 [4] [nM],IC50 [6] [nM],further results
O=C(Nc1ccc(C[C@H](NC(=O)C2(S(=O)(=O)c3ccccc3)CCCNC2)C(=O)O)cc1)c1c(Cl)cccc1Cl (stereo not given in full),0.19,–,IC50 [1]: 22 nM; half-life [2]: 18 min; bioavailability [3]: 0%; clearance [5]: 78 mL/min/kg
COc1ccccc1-c1ccc(C[C@H](NC(=O)C2(S(=O)(=O)c3ccccc3C)CCCCC2)C(=O)O)cc1,2.7,149,–
COc1ccccc1-c1ccc(C[C@H](NC(=O)C2(S(=O)(=O)c3ccc(Cl)cc3)CCCCC2)C(=O)O)cc1,1.1,53,–
COc1ccccc1-c1ccc(C[C@H](NC(=O)C2(S(=O)(=O)c3cccc(C)c3)CCCCC2)C(=O)O)cc1,1,77,–
COc1ccccc1-c1ccc(C[C@H](NC(=O)C2(S(=O)(=O)C3CCCCC3)CCCC2)C(=O)O)cc1,1.1,52,–
O=C(O)[C@H](Cc1ccc(-c2ccccc2)cc1)NC(=O)C1(S(=O)(=O)c2ccccc2Br)CCCC1,105,–,inhibition [7]: 8%
COc1cccc(OC)c1-c1ccc(C[C@H](NC(=O)C2(S(=O)(=O)c3ccccc3)CCCNC2)C(=O)O)cc1 (stereo not given in full),0.09,–,IC50 [1]: 168 nM; half-life [2]: 30 min; bioavailability [3]: 1%; clearance [5]: 46 mL/min/kg
O=C(Nc1ccc(C[C@H](NC(=O)C2(S(=O)(=O)c3ccccc3)CCOCC2)C(=O)O)cc1)c1c(Cl)cccc1Cl,0.22,–,IC50 [1]: 20 nM; half-life [2]: 36 min; bioavailability [3]: 1%; clearance [5]: 48 mL/min/kg
O=C(O)[C@H](Cc1ccc(-c2ccccc2)cc1)NC(=O)C1(S(=O)(=O)c2ccccc2Br)CCCCC1,45,–,inhibition [7]: 13%
COc1ccccc1-c1ccc(C[C@H](NC(=O)C2(S(=O)(=O)C(C)(C)C)CCCC2)C(=O)O)cc1,0.47,19,–
COc1cccc(OC)c1-c1ccc(C[C@H](NC(=O)C2(S(=O)(=O)c3ccccc3)CCOCC2)C(=O)O)cc1,0.16,–,IC50 [1]: 38 nM; half-life [2]: 48 min; bioavailability [3]: 3%; clearance [5]: 133 mL/min/kg
O=C(O)[C@H](Cc1ccc(-c2ccccc2)cc1)NC(=O)C1(S(=O)(=O)c2ccc(Br)cc2)CCCC1,23,–,inhibition [7]: 20%
COc1ccccc1-c1ccc(C[C@H](NC(=O)C2(S(=O)(=O)c3ccccc3)CCCC2)C(=O)O)cc1,0.33,83,–
COc1ccccc1-c1ccc(C[C@H](NC(=O)C2(S(=O)(=O)c3nccn3C)CCCC2)C(=O)O)cc1,0.21,4,–
Cc1ccc(S(=O)(=O)C2(C(=O)N[C@@H](Cc3ccc(-c4ccccc4)cc3)C(=O)O)CCCCC2)cc1,53,–,inhibition [7]: 0%
COc1ccccc1-c1ccc(C[C@H](NC(=O)C2(S(=O)(=O)c3ccc(F)cc3)CCCCC2)C(=O)O)cc1,0.75,25,–
O=C(O)[C@H](Cc1ccc(-c2ccccc2)cc1)NC(=O)C1(S(=O)(=O)c2ccccc2)CCCC1,28,–,inhibition [7]: 18%
O=C(O)[C@H](Cc1ccc(-c2ccccc2)cc1)NC(=O)C1(S(=O)(=O)c2ccccc2)CC=CC1,275,–,inhibition [8]: 7%
COc1ccccc1-c1ccc(C[C@H](NC(=O)C2(S(=O)(=O)c3ccc(C)cc3)CCCCC2)C(=O)O)cc1,1.5,91,–
